Results on one compound are retold here after paper PMC6934184, “Selective DNA-PKcs inhibition extends the therapeutic index of localized radiotherapy and chemotherapy” (The Journal of Clinical Investigation, 2019).

In the assay the target is T1, MAP3K5 (ASK1) (Homo sapiens, UniProt Q99683).
T1 construct: purchased Thermo Fisher Scientific (Life Technologies) SelectScreen
Nature of the assay: SelectScreen LanthaScreen. The assay is classed as binding. To be noted: read-out: % displacement. The method in brief:
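SelectScreen broad panel; activity (Z'LYTE, Adapta) plus binding formats. ATP: Km app for CSF1R Z'LYTE; 10 for CAMK1 Adapta. Readout = % per kinase.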
Background: Time-resolved FRET reads energy transfer from a long-lived donor to a nearby acceptor.

T1 sequence (Q99683 whole entry): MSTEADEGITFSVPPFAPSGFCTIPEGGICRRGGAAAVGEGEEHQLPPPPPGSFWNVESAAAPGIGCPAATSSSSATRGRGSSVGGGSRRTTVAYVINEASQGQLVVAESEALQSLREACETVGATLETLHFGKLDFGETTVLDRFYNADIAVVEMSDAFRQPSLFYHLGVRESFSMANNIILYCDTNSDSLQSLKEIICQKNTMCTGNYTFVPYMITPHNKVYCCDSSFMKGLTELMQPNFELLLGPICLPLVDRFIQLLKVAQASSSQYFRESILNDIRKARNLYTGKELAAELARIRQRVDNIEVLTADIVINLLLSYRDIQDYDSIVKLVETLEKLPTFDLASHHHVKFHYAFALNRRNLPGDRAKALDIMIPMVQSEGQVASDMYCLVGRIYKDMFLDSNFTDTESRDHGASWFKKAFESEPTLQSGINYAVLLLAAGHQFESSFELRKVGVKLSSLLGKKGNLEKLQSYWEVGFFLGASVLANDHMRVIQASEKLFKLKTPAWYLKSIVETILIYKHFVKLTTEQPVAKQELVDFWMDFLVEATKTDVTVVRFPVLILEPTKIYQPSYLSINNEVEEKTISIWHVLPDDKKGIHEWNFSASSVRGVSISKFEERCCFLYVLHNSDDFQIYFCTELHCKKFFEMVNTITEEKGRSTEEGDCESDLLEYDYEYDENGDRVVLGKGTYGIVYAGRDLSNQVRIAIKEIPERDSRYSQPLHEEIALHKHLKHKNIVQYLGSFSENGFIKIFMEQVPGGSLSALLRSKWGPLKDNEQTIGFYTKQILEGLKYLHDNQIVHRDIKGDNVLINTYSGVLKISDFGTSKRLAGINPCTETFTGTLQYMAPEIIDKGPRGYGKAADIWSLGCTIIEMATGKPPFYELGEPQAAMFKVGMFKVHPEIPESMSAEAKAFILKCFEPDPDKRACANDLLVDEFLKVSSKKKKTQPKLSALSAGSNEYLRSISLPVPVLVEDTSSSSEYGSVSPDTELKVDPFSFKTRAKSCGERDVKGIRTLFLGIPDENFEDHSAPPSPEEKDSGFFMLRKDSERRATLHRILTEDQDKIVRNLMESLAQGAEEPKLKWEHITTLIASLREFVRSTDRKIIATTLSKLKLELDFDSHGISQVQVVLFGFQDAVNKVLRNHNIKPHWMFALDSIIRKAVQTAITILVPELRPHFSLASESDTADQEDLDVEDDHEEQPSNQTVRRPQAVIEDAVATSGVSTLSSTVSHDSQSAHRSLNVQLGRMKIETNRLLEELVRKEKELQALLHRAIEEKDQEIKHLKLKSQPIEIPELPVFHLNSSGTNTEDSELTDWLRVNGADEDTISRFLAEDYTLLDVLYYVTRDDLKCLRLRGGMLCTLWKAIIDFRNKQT

Regarding `CN(C(=O)CN1CCOCC1)c1ccc2sc3c(-c4cccc5c(=O)cc(N6CC7CCC(C6)O7)oc45)cccc3c2c1` [NU5455], the inhibition at 1 µM was 2.3%.
